Results on 73 compounds are retold here after ChEMBL document CHEMBL5604066, “ASAP - DENV-4 NS2B-NS3 protease fluorescence dose response” (2024).

“And” between values parts separate entries of the source, which are not always exact repeats. Identical values can stand only once.

Usually IC50 stands for the point on the concentration scale where inhibition reaches its midpoint. Lower therefore signals greater potency in that assay.

The target in this assay is T1, NS3 protease (dengue virus type 4, UniProt A0A0K0TQ36).
T1 sequence (A0A0K0TQ36 whole entry): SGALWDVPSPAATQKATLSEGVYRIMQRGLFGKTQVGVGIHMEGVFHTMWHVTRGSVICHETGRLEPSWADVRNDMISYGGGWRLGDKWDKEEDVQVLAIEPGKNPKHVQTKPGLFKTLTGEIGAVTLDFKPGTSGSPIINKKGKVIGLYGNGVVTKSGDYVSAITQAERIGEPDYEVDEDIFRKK
Description: Functional biochemical assay to identify treatments for viral infectious disease that targets Dengue virus type 4 NS2B-NS3 protease. Utilizing a direct enzyme activity measurement method, reading the fluorescence intensity is used to characterize the relative potency of inhibitors as IC50. Also noted: species or system Philippines/H241/1956.
On to `COCCNC(=O)[C@H](Nc1ccc2c(c1)CNC2)c1cc(Cl)cc(C2CC2)c1`, for which the half-maximal inhibitory concentration (IC50) is above 99.5 µM.

Compound `O=C(NCC(F)F)[C@H](Nc1ccc2c(c1)CNC2)c1cc(Cl)cc(C2CC2)c1` had an IC50 above 99.5 µM.

In turn, `O=C(Nc1ccc2c(c1)CNCC2)c1cc(Cl)cc2[nH]ncc12` had a half-inhibitory concentration (IC50) above 99.5 µM.

`O=C(Nc1ccc2c(c1)CNC2)c1cccc(-c2cnco2)c1` yielded an IC50 of 23.3 µM.

`CC(C)NC(=O)[C@H](Nc1ccc2c(c1)CNC2)c1cc(Cl)cc2[nH]ncc12`: the IC50 was found to be 49.8 µM.

Take `Cn1cc2cc(Cl)cc(C(=O)Nc3ccc4c(c3)CNC4)c2n1`: the IC50 was above 99.5 µM.

For the compound `O=C(Nc1ccc2c(c1)CNC2)c1cc(Cl)cc2c1CCC2`, the IC50 is above 99.5 µM.

In the case of `CNC(=O)[C@H](Nc1ccc2c(c1)CNC2)c1cc(Cl)cc(C2CC2)c1`, the IC50 was above 99.5 µM.

Compound `O=C(Nc1ccc2c(c1)CNC2)c1cc(Br)cc2[nH]c(-c3ccccc3)nc12` registered an IC50 of 2.96 µM.

With `N#C[C@H](Nc1ccc2c(c1)CNC2)c1cc(Cl)cc(C2CC2)c1`, the IC50 was above 99.5 µM.

`Clc1cc(CNc2ccc3c(c2)CNC3)c2cn[nH]c2c1`: inhibition was half-maximal at 38.8 µM (IC50).

In turn, `O=C(NC1CCOCC1)[C@H](Nc1ccc2c(c1)CNC2)c1cc(Cl)cc(C2CC2)c1` showed an IC50 above 99.5 µM.

The compound `Cn1cc(CNC(=O)[C@H](Nc2ccc3c(c2)CNC3)c2cc(Cl)cc(C3CC3)c2)cn1` came in with a half-maximal inhibitory concentration (IC50) above 99.5 µM.

Compound `Cn1cc(CCc2nc3c(C(=O)Nc4ccc5c(c4)CNC5)cc(Cl)cc3[nH]2)cn1` returned an IC50 of 26.4 µM.

`O=C(Nc1ccc2c(c1)CNC2)c1cc(F)cc2[nH]ncc12`: the IC50 was above 99.5 µM.

`Cc1c(C(=O)Nc2cc([C@H]3CCOC3)ccn2)cc(C2CC2)n1C`: the IC50 is above 99.5 µM.

Consider `O=C(Nc1ccc2c(c1)CNC2)c1cc(Cl)cc2ccncc12`, for which the half-maximal inhibitory concentration (IC50) was above 99.5 µM.

Turning to `O=C1Cc2c(cc(Br)cc2C(=O)Nc2ccc3c(c2)CNC3)N1`, 87.9 µM corresponded to half-maximal inhibition (IC50).

On to `CC(C)NC(=O)[C@H](Nc1ccc2c(c1)CNC2)c1cc(Cl)cc2[nH]c(-c3ccccc3)nc12`, for which the IC50 is 14.6 µM and 4.38 µM.

Regarding `NCCc1csc2cc(C(=O)Nc3cc([C@H]4CCOC4)ccn3)ccc12`, the IC50 is above 99.5 µM.

`O=C(Nc1ccc2c(c1)CNC2)c1cccc2[nH]c(C(F)(F)F)cc12`: the IC50 is above 99.5 µM.

Compound `O=C(Nc1ccc2c(c1)CNC2)c1cc(Cl)cc2cn[nH]c12` registered an IC50 above 99.5 µM.

The compound `N#Cc1cccc(-c2nc3c(C(=O)Nc4ccc5c(c4)CNC5)cc(F)cc3[nH]2)c1` displayed an IC50 of 2.86 µM.

The compound `C=CC[C@H]1NCc2cc(NC(=O)c3cccc4c3CC(=O)N4)ccc21` registered a half-inhibitory concentration (IC50) above 99.5 µM.

The compound `O=C(Nc1ccc2c(c1)CNC2)c1ccc2[nH]cc(C3CCNCC3)c2c1` had an IC50 of 36.7 µM.

`O=C(Nc1ccc2c(c1)CNC2)c1cc(Br)cc2[nH]c(=O)[nH]c12` registered an IC50 of 38.7 µM.

The compound `N#C[C@H](Nc1ccc2c(c1)CNC2)c1cc(Cl)cc2[nH]ncc12` returned an IC50 above 99.5 µM.

`Clc1cc([C@@H]2C[C@H]2c2cccc(C3CCNCC3)c2)c2cn[nH]c2c1` returned a half-inhibitory concentration (IC50) of 5.84 µM.

`N#Cc1ccc(-c2nc3c(C(=O)Nc4ccc5c(c4)CNC5)cc(F)cc3[nH]2)cc1` came in with an IC50 of 1.92 µM.

As for `Cc1c(C(=O)Nc2cc(-c3cccnc3)ccn2)cc(C2CC2)n1C`, half-maximal inhibition (IC50) required 6.83 µM.

`COc1cccc(-c2nc3c(C(=O)Nc4ccc5c(c4)CNC5)cc(F)cc3[nH]2)c1` came in with an IC50 of 5.32 µM.

Take `O=C(NCC(F)F)[C@H](Nc1ccc2c(c1)CNC2)c1cc(F)cc2[nH]ccc12`: the IC50 was above 99.5 µM.

`CC(C)c1nnc(-c2nc3c(C(=O)Nc4ccc5c(c4)CNC5)cc(F)cc3[nH]2)s1` returned an IC50 of 9.86 µM.

For the compound `C=CC[C@H]1NCc2cc(NC(=O)c3cc(Cl)cc4[nH]ncc34)ccc21`, the IC50 was above 99.5 µM.

With `Cc1nc2c(C(=O)Nc3ccc4c(c3)CNC4)cc(Cl)cc2[nH]1`, the IC50 is 26.7 µM.

In turn, `O=C(NCCC1CC1)[C@H](Nc1ccc2c(c1)CNC2)c1cc(Cl)cc(C2CC2)c1` gave an IC50 above 99.5 µM.

For the compound `NCc1cccc(-c2csc3cc(C(=O)Nc4ccc5c(c4)CNC5)ccc23)c1`, the IC50 stood at 43.7 µM.

As to `O=C(Nc1ccc2c(c1)CNC2)c1cc(F)cc2[nH]c(-c3cccc(F)c3)nc12`, inhibition was half-maximal at 3.73 µM (IC50).

`N#Cc1cc2c(cc1NC(=O)c1cc(F)cc3[nH]ncc13)CNC2` yielded an IC50 of 36.9 µM.

Consider `O=C(Nc1ccc2c(c1)CNC2)c1cc(Cl)cc2cc[nH]c12`, for which the IC50 is above 99.5 µM.

As for `C=CC[C@H]1NCc2cc(NC(=O)c3cc(F)cc4[nH]ncc34)ccc21`, the half-maximal inhibitory concentration (IC50) was above 99.5 µM.

Turning to `Cc1cccc(-c2nc3c(C(=O)Nc4ccc5c(c4)CNC5)cc(F)cc3[nH]2)c1`, the IC50 amounted to 5.9 µM.

Regarding `Cc1ccccc1-c1nc2c(C(=O)Nc3ccc4c(c3)CNC4)cc(F)cc2[nH]1`, the IC50 was determined as 3.24 µM.

Compound `O=C(Nc1cc(Br)c2c(c1)CNC2)c1cc(F)cc2[nH]ncc12` yielded an IC50 above 99.5 µM.

Turning to `O=C(NCC(F)F)[C@H](Nc1ccc2c(c1)CNC2)c1cc(F)cc2[nH]ncc12`, the IC50 is above 99.5 µM.

Turning to `O=C1Cc2c(cc(F)cc2C(=O)Nc2ccc3c(c2)CNC3)N1`, the IC50 is 53.7 µM.

Regarding `O=C(Nc1ccc2c(c1)CNC2)c1ccc2c(C3=CCNCC3)csc2c1`, half-maximal inhibition (IC50) was put at 70 µM.

`C=CC[C@H]1NCc2cc(N[C@H](C(=O)NC(C)C)c3cc(Cl)cc4[nH]ncc34)ccc21` returned an IC50 above 99.5 µM.

For `O=C(Nc1ccc2c(c1)CNC2)c1cc(F)cc2[nH]c(-c3ccccc3F)nc12`, the IC50 worked out at 5.23 µM.

The compound `NCc1ccc(-c2csc3cc(C(=O)Nc4ccc5c(c4)CNC5)ccc23)cc1` returned an IC50 of 53.2 µM.

In the case of `O=C(NC1CCOCC1)[C@H](Nc1ccc2c(c1)CNC2)c1cc(Cl)cc2[nH]ncc12`, the IC50 was found to be 43.9 µM.

For `NCc1csc2cc(C(=O)Nc3ccc4c(c3)CNC4)ccc12`, the IC50 came out at 11.8 µM.

As to `O=C(Nc1ccc2c(c1)CNC2)c1cc(F)c2[nH]ccc2c1`, the IC50 was above 99.5 µM.

`Cn1c(=O)[nH]c2c(C(=O)Nc3ccc4c(c3)CNC4)cc(Br)cc21` had an IC50 above 99.5 µM.

The compound `O=C(Nc1ccc2c(c1)CNC2)c1cc(F)cc2c1CCC2` displayed a half-maximal inhibitory concentration (IC50) above 99.5 µM.

As for `Cc1cccc(-c2nc3c(C(=O)Nc4ccc5c(c4)CNC5)cc(Cl)cc3[nH]2)c1O`, the IC50 was found to be 3.54 µM.

Take `O=C(Nc1ccc2c(c1)CNC2)c1cccc2[nH]c(=O)[nH]c12`: the IC50 was 74.5 µM.

For `O=C(Nc1ccc2c(c1)CNC2)c1cccc2c(C3CNC3)n[nH]c12`, inhibition was half-maximal at 32.2 µM (IC50).

For `O=C(Nc1ccc2c(c1)CNC2)c1cc(Cl)cc(C(F)(F)F)n1`, the IC50 worked out at 23 µM.

Compound `O=C(Nc1ccc2c(c1)CNC2)c1cc(F)cc2[nH]c(-c3ccc(F)cc3)nc12` had an IC50 of 3.65 µM.

With `O=C(Nc1ccc2c(c1)CNC2)c1cccc2nc(O)ccc12`, the IC50 is above 99.5 µM.

`COc1cc(-c2cc(NC(=O)c3cc(F)cc4[nH]ncc34)cc3c2CNC3)ccn1` had a 50% inhibitory concentration (IC50) of 42.5 µM.

`CCOCCNC(=O)[C@H](Nc1ccc2c(c1)CNC2)c1cc(Cl)cc2[nH]ncc12` came in with an IC50 above 99.5 µM.

`CC(C)(c1nc2c(C(=O)Nc3ccc4c(c3)CNC4)cc(F)cc2[nH]1)S(C)(=O)=O` returned an IC50 of 18 µM.

For the compound `O=C1Cc2cc(C(=O)Nc3ccc4c(c3)CNC4)ccc2N1`, the IC50 is 14 µM and 8.21 µM.

Compound `NCCc1csc2cc(C(=O)Nc3ccc4c(c3)CNC4)ccc12` had an IC50 above 99.5 µM.

The compound `O=C(Nc1ccc2c(c1)CNC2)c1cc(F)cc2[nH]c(-c3ccccc3)nc12` gave an IC50 of 5.41 µM.

As to `O=C(Nc1ccc2c(c1)CNC2)c1cc(Cl)cc2nn(-c3ccccc3)nc12`, 5.25 µM corresponded to half-maximal inhibition (IC50).

`O=C(Nc1ccc2c(c1)CNC2)c1cccc2cn[nH]c12`: it took 45 µM to reach half-maximal inhibition (IC50).

As for `O=C(Nc1cc2c(cc1Br)CNC2)c1cc(F)cc2[nH]ncc12`, the IC50 was above 99.5 µM.

In turn, `O=C(Nc1ccc2c(c1)CNC2)c1ccc2[nH]ccc2c1` yielded a half-inhibitory concentration (IC50) above 99.5 µM.

Turning to `O=C(Nc1cc2c(c(C3=CCS(=O)(=O)CC3)c1)CNC2)c1cc(F)cc2[nH]ncc12`, the concentration for half-maximal inhibition (IC50) was 50 µM.

In turn, `O=C(Nc1cc2c(c(C3=CCOCC3)c1)CNC2)c1cc(F)cc2[nH]ncc12` had an IC50 of 29.9 µM.
